Here are results for 22 molecules from patent publication US11878970B2, “Allosteric chromenone inhibitors of phosphoinositide 3-kinase (PI3K) for the treatment of disease” (Petra Pharma Corporation, priority 2021, dated 2024).

In general, IC50 refers to the concentration that inhibits the measured activity by half.

Structures are written as SMILES.

Experiment [1] deals with T1, PI3K-α (PIK3CA) H1047R mutant, p110α/p85α complex (Homo sapiens, UniProt P42336, H1047R).
T1 construct: Recombinant, catalytically active human full length PIK3KA Wild-type and H1047R mutant; 6×His (N); purchased EMD Millipore Sigma 14-792M
T1 sequence (P42336 whole entry H1047R): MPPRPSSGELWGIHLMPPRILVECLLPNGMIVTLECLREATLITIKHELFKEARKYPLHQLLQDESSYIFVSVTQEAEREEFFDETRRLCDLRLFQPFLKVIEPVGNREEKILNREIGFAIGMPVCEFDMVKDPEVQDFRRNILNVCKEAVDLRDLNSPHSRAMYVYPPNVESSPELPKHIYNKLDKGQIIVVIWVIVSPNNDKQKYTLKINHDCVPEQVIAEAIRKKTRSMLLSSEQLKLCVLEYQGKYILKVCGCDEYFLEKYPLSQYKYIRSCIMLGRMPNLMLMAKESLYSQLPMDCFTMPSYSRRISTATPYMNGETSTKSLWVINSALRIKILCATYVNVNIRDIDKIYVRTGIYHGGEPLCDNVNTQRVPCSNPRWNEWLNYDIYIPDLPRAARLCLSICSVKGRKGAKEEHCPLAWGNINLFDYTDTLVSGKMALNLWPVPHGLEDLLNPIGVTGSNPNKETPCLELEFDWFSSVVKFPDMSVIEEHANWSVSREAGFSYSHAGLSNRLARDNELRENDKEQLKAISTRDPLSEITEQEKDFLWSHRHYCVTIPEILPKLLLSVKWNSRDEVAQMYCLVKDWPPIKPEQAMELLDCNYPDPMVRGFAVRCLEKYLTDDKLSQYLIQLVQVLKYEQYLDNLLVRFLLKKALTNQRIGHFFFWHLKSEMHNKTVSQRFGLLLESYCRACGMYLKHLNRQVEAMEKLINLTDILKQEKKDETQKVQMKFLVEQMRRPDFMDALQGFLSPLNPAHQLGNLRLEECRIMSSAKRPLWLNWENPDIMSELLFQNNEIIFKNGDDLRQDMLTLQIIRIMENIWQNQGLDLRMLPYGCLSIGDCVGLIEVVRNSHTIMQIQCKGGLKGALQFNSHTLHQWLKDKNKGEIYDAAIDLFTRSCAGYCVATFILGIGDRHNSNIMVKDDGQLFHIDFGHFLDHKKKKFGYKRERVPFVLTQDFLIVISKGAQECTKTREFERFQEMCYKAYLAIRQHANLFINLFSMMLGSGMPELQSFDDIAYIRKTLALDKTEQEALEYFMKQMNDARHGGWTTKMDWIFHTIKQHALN
T1 sequence (P27986 whole entry partner): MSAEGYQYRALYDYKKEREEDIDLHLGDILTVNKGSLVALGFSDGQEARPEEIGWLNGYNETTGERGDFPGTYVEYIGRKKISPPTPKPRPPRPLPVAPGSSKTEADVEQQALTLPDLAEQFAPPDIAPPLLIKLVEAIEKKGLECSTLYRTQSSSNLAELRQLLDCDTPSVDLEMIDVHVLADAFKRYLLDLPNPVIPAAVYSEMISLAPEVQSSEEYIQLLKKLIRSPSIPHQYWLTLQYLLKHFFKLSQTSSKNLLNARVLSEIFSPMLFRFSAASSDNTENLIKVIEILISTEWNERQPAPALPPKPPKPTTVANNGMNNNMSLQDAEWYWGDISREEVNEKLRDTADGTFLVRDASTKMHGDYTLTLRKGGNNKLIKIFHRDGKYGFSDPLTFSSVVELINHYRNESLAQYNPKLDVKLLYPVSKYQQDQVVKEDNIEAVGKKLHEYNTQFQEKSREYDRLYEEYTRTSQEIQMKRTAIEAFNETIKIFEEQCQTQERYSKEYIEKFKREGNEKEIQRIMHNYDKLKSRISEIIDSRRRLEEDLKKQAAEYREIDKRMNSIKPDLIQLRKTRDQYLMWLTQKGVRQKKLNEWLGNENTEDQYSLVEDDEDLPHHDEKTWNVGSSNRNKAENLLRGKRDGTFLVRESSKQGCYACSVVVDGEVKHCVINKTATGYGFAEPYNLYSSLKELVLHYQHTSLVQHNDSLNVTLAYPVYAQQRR
The experiment in a line: PI3K-alpha kinase (PIK3CA) biochemical activity, ADP-Glo, H1047R mutant. Summed up: (§1)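 ADP formation measured by ADP-Glo luminescence after reaction at 27 °C to about 10% ATP turnover, using 20 uM ATP, 50 uM PIP2diC8 or soy PI lipid, HEPES pH 7.4 with MgCl2. Enzyme (1-5 nM WT or H1047R p110α/p85α) and compound preincubated 1 h first; 10-point 1:3 curves fitted four-parameter for IC50.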

Experiment [2] concerns the target PI3K-α (PIK3CA) in MDA-MB-453 cells (Homo sapiens, UniProt P42336). The experiment in a line: PI3K-alpha kinase (PIK3CA) in vitro cell based assay, MDA-MB-453 cells, SureFire Ultra AlphaLisa. The note with it: read-out: PI3K-α (PIK3CA) in vitro cell based assay IC50. Summed up:
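Cells treated 3 h in serum-free MEM with 1 μg/mL insulin, 10-point 1:3 series in 0.3% DMSO, then lysed for SureFire Ultra AlphaLisa read-out. Inhibition normalized to DMSO (max) and 1 μM GDC-0032 (min); duplicate averages fitted by 4-parameter logistic for relative IC50.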
(In Alpha technology, singlet oxygen from a donor bead excites a nearby acceptor bead.)

The target in experiment [3] is T2, PI3K-α (PIK3CA) wild-type (WT), p110α/p85α complex (Homo sapiens, UniProt P42336).
T2 construct: Recombinant, catalytically active human full length PIK3KA Wild-type and H1047R mutant; 6×His (N); purchased EMD Millipore Sigma 14-602M
Description: PI3K-alpha kinase (PIK3CA) biochemical activity, ADP-Glo, wild-type. The procedure, abridged:
as §1

[4] abbreviates: PIP2diC8 lipid substrate (footnote 1).

Sequence of PI3K-α (PIK3CA) in MDA-MB-453 cells (P27986 2-724): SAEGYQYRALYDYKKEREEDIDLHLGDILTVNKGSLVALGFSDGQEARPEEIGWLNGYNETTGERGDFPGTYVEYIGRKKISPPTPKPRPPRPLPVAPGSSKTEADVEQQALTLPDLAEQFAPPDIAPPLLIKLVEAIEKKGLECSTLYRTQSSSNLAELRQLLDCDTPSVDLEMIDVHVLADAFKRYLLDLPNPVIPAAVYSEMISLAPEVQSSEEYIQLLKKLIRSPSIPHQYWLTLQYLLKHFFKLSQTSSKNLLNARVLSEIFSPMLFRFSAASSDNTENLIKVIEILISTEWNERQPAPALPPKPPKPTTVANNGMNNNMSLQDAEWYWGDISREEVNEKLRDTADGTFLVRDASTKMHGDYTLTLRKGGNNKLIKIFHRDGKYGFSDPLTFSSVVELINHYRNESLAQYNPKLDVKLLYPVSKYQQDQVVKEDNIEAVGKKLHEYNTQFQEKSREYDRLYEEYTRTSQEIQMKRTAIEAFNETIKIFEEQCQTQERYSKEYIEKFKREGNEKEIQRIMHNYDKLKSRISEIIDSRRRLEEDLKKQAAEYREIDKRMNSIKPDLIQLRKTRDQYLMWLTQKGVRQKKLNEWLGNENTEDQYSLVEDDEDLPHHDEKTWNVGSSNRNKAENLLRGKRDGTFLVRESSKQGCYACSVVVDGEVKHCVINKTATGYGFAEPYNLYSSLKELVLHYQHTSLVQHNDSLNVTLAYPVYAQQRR
Sequence of PI3K-α (PIK3CA) in MDA-MB-453 cells (P42336 whole entry): as the sequence (P42336 whole entry H1047R) above, with R1047H counted along it

For the molecule `Cc1cc(C(C)Nc2ccccc2C(=O)O)c2oc(-c3ccc4ccn(C)c4c3)cc(=O)c2c1` (single isomer, unassigned) [Example 158, 2-[1-[6-Methyl-2-(1-methylindol-6-yl)-4-oxo-chromen-8-yl]ethylamino]benzoic acid], the half-maximal inhibitory concentration (IC50) was less than 500 nM in experiment [1] (Soy PI lipid substrate), less than 50 nM in experiment [2] and 1000 to 5000 nM in experiment [3] (Soy PI lipid substrate).
As to `Cc1cc(C(C)Nc2ccc(Cl)nc2C(=O)O)c2oc(-c3ccc4cc[nH]c4n3)cc(=O)c2c1` (stereo not drawn) [Example 195, 6-Chloro-3-[1-[6-methyl-4-oxo-2-(1H-pyrrolo[2,3-b]pyridin-6-yl)chromen-8-yl]ethylamino]pyridine-2-carboxylic acid], the IC50 in experiment [1] (Soy PI lipid substrate) was less than 500 nM; in experiment [2], less than 50 nM; in experiment [3] (Soy PI lipid substrate) it was 500 to 1000 nM.
Take `Cc1cc(C(C)Nc2ccccc2C(=O)O)c2oc(-c3ccc4nn(C)cc4c3)c(C)c(=O)c2c1` (single isomer, unassigned) [Example 91, 2-[1-[3,6-Dimethyl-2-(2-methylindazol-5-yl)-4-oxo-chromen-8-yl]ethylamino]benzoic acid]: the results for the IC50 in experiment [1] (Soy PI lipid substrate), in experiment [2] and in experiment [3] (Soy PI lipid substrate) were less than 500 nM, less than 50 nM and 500 to 1000 nM, respectively.
The corresponding values for `Cc1cc(C(C)Nc2ccccc2C(=O)O)c2oc(-c3cc4cccnc4cn3)cc(=O)c2c1` (single isomer, unassigned) [Example 187, 2-[1-[6-Methyl-2-(1,7-naphthyridin-6-yl)-4-oxo-chromen-8-yl]ethylamino]benzoic acid] are less than 500 nM, less than 50 nM and 1000 to 5000 nM.
The corresponding values for `Cc1cc(C(C)Nc2ccccc2C(=O)O)c2oc(-c3cc4cnccc4o3)c(C)c(=O)c2c1` (single isomer, unassigned) [Example 153, 2-[1-(2-Furo[3,2-c]pyridin-2-yl-3,6-dimethyl-4-oxo-chromen-8-yl)ethylamino]benzoic acid] are less than 500 nM, less than 50 nM and less than 500 nM.
In the case of `Cc1cc([C@@H](C)Nc2ccc(Cl)nc2C(=O)O)c2oc(-c3cc4cccnc4[nH]3)c(C)c(=O)c2c1` [Example 247, 6-Chloro-3-[[(1R)-1-[3,6-dimethyl-4-oxo-2-(1H-pyrrolo[2,3-b]pyridin-2-yl)chromen-8-yl]ethyl]amino]pyridine-2-carboxylic acid], the concentration for half-maximal inhibition (IC50) in experiment [1] (Soy PI lipid substrate) was less than 500 nM; in experiment [2], less than 50 nM; in experiment [3] (Soy PI lipid substrate) it was less than 500 nM.
Regarding `Cc1cc([C@@H](C)Nc2ccc(Cl)nc2C(=O)O)c2oc(-c3cc4ccccc4[nH]3)c(C)c(=O)c2c1` [Example 196, 6-Chloro-3-[[(1R)-1-[2-(1H-indol-2-yl)-3,6-dimethyl-4-oxo-chromen-8-yl]ethyl]amino]pyridine-2-carboxylic acid], the concentration for half-maximal inhibition (IC50) in experiment [1] (Soy PI lipid substrate) is less than 500 nM; in experiment [2], less than 50 nM; in experiment [3] (Soy PI lipid substrate) it was 1000 to 5000 nM.
Take `Cc1cc([C@@H](C)Nc2ccc(C(F)(F)F)nc2C(=O)O)c2oc(-c3ccc4nc(C)sc4n3)c(C)c(=O)c2c1` [Example 233, 3-[[(1R)-1-[3,6-Dimethyl-2-(2-methylthiazolo[5,4-b]pyridin-5-yl)-4-oxo-chromen-8-yl]ethyl]amino]-6-(trifluoromethyl)pyridine-2-carboxylic acid]: the IC50 in experiment [1] (Soy PI lipid substrate) is less than 500 nM; in experiment [2], 100 to 500 nM; in experiment [3] (Soy PI lipid substrate), 1000 to 5000 nM.
Take `Cc1cc(C(C)Nc2ccccc2C(=O)O)c2oc(-c3ccc4nc(C#N)ccc4c3)cc(=O)c2c1` (single isomer, unassigned) [Example 207, 2-[1-[2-(2-Cyano-6-quinolyl)-6-methyl-4-oxo-chromen-8-yl]ethylamino]benzoic acid]: the 50% inhibitory concentration (IC50) in experiment [1] (Soy PI lipid substrate) was less than 500 nM; in experiment [2] it was 50 to 100 nM; in experiment [3] (Soy PI lipid substrate), 500 to 1000 nM.
On to `Cc1cc(C(C)Nc2ccccc2C(=O)O)c2oc(-c3ccc4cc[nH]c4n3)cc(=O)c2c1` (single isomer, unassigned) [Example 4, 2-[1-[6-Methyl-4-oxo-2-(1H-pyrrolo[2,3-b]pyridin-6-yl)chromen-8-yl]ethylamino]benzoic acid], for which the IC50 was less than 500 nM in experiment [1] (Soy PI lipid substrate), less than 50 nM in experiment [2] and 500 to 1000 nM in experiment [3] (Soy PI lipid substrate).
`Cc1cc([C@@H](C)Nc2ccccc2C(=O)O)c2oc(-c3cc4cnccc4s3)c(C)c(=O)c2c1` [Example 203, 2-[[(1R)-1-(3,6-Dimethyl-4-oxo-2-thieno[3,2-c]pyridin-2-yl-chromen-8-yl)ethyl]amino]benzoic acid]: the half-maximal inhibitory concentration (IC50) in experiment [1] (Soy PI lipid substrate) is less than 500 nM; in experiment [2], less than 50 nM; in experiment [3] (Soy PI lipid substrate), less than 500 nM.
On to `CC(Nc1ccccc1C(=O)O)c1cc(C(F)(F)F)cc2c(=O)cc(-c3ccc4c(cnn4C)c3)oc12` (single isomer, unassigned) [Example 109, 2-[1-[2-(1-Methylindazol-5-yl)-4-oxo-6-(trifluoromethyl)chromen-8-yl]ethylamino]benzoic acid], for which the IC50 in experiment [1] (Soy PI lipid substrate) is less than 500 nM; in experiment [2] it was less than 50 nM; in experiment [3] (Soy PI lipid substrate), 1000 to 5000 nM.
Turning to `Cc1cc(C(C)Nc2ccccc2C(=O)O)c2oc(-c3ccc4cn[nH]c4c3)c(C)c(=O)c2c1` (single isomer, unassigned) [Example 120, 2-[1-[2-(1H-Indazol-6-yl)-3,6-dimethyl-4-oxo-chromen-8-yl]ethylamino]benzoic acid], the concentration for half-maximal inhibition (IC50) in experiment [1] (Soy PI lipid substrate) was less than 500 nM; in experiment [2], less than 50 nM; in experiment [3] (Soy PI lipid substrate), 500 to 1000 nM.
The corresponding values for `Cc1cc(C(C)Nc2ccccc2C(=O)O)c2oc(-c3ccn4cc(C)nc4c3)cc(=O)c2c1` (single isomer, unassigned) [Example 3, 2-[1-[6-Methyl-2-(2-methylimidazo[1,2-a]pyridin-7-yl)-4-oxo-chromen-8-yl]ethylamino]benzoic acid] are less than 500 nM, 50 to 100 nM and 1000 to 5000 nM.
For the molecule `Cc1cc(C(C)Nc2ccc(Cl)nc2C(=O)O)c2oc(-c3ccc4c(cnn4C)c3)cc(=O)c2c1` (single isomer, unassigned) [Example 217, 6-Chloro-3-[1-[6-methyl-2-(1-methylindazol-5-yl)-4-oxo-chromen-8-yl]ethylamino]pyridine-2-carboxylic acid], the half-maximal inhibitory concentration (IC50) in experiment [1] (Soy PI lipid substrate) is 1000 to 5000 nM; in experiment [2], more than 500 nM; in experiment [3] (Soy PI lipid substrate), 1000 to 5000 nM.
Regarding `Cc1cc(C(C)Nc2ccccc2C(=O)O)c2oc(-c3cc4ccncc4o3)cc(=O)c2c1` (stereo not drawn) [Example 7, 2-[1-(2-Furo[2,3-c]pyridin-2-yl-6-methyl-4-oxo-chromen-8-yl)ethylamino]benzoic acid], the IC50 in experiment [1] (setting [4]) is less than 500 nM; in experiment [2], 50 to 100 nM; in experiment [3] (setting [4]) it was less than 500 nM.
As to `Cc1cc(C(C)Nc2ccccc2C(=O)O)c2oc(-c3ccc4[nH]c(C)nc4c3)cc(=O)c2c1` (single isomer, unassigned) [Example 65, 2-[1-[6-Methyl-2-(2-methyl-1H-benzimidazol-5-yl)-4-oxo-chromen-8-yl]ethylamino]benzoic acid], the half-maximal inhibitory concentration (IC50) in experiment [1] (Soy PI lipid substrate) was less than 500 nM; in experiment [2] it was 100 to 500 nM; in experiment [3] (Soy PI lipid substrate), 1000 to 5000 nM.
Turning to `Cc1cc(C(C)Nc2ccccc2C(=O)O)c2oc(-c3cc4ccncc4o3)cc(=O)c2c1` (single isomer, unassigned) [Example 40, 2-[1-(2-Furo[2,3-c]pyridin-2-yl-6-methyl-4-oxo-chromen-8-yl)ethylamino]benzoic acid], the IC50 was in the range of 1000 to 5000 nM in experiment [1] (Soy PI lipid substrate), 100 to 500 nM in experiment [2] and 5000 to 10000 nM in experiment [3] (Soy PI lipid substrate).
Taken in the same sequence, the figures for `Cc1cc([C@@H](C)Nc2cccnc2C(=O)O)c2oc(-c3ccc4nc(C)sc4n3)c(C)c(=O)c2c1` [Example 243, 3-[[(1R)-1-[3,6-Dimethyl-2-(2-methylthiazolo[5,4-b]pyridin-5-yl)-4-oxo-chromen-8-yl]ethyl]amino]pyridine-2-carboxylic acid] were 1000 to 5000 nM, 100 to 500 nM and 1000 to 5000 nM.
In the case of `Cc1cc([C@@H](C)Nc2cccnc2C(=O)O)c2oc(-c3ccc4nn(C)cc4c3)c(C)c(=O)c2c1` [Example 240, 3-[[(1R)-1-[3,6-Dimethyl-2-(2-methylindazol-5-yl)-4-oxo-chromen-8-yl]ethyl]amino]pyridine-2-carboxylic acid], the IC50 in experiment [1] (Soy PI lipid substrate) is 500 to 1000 nM; in experiment [2], 50 to 100 nM; in experiment [3] (Soy PI lipid substrate) it was 1000 to 5000 nM.
Taken in the same sequence, the figures for `Cc1cc([C@@H](C)Nc2ccc(Cl)cc2C(=O)O)c2oc(-c3ccc4cnn(C)c4c3)cc(=O)c2c1` [Example 237, 5-Chloro-2-[[(1R)-1-[6-methyl-2-(1-methylindazol-6-yl)-4-oxo-chromen-8-yl]ethyl]amino]benzoic acid] were less than 500 nM, 50 to 100 nM and 500 to 1000 nM.
Regarding `Cc1cc(C(C)Nc2ccccc2C(=O)O)c2oc(-c3ccc4nc(C)sc4n3)cc(=O)c2c1` (single isomer, unassigned) [Example 139, 2-[1-[6-Methyl-2-(2-methylthiazolo[5,4-b]pyridin-5-yl)-4-oxo-chromen-8-yl]ethylamino]benzoic acid], the half-inhibitory concentration (IC50) in experiment [1] (Soy PI lipid substrate) is less than 500 nM; in experiment [2], less than 50 nM; in experiment [3] (Soy PI lipid substrate) it was 1000 to 5000 nM.
